Results taken from paper PMC5799214, “A Novel Mitochondrial Serine O-Acetyltransferase, OpSAT1, Plays a Critical Role in Sulfur Metabolism in the Thermotolerant Methylotrophic Yeast Ogataea parapolymorpha” (Scientific Reports, 2018).

Assays:
[1] = target: T1, CysE (GST-CysE) (Escherichia coli, UniProt P0A9D4); test: SAT activity, decrease of OD232 (acetyl-CoA consumption); format: biochemical; details: read-out: % residual activity at 1 μM
T1 construct: template plasmid pCysE
T1 sequence (P0A9D4 2-273): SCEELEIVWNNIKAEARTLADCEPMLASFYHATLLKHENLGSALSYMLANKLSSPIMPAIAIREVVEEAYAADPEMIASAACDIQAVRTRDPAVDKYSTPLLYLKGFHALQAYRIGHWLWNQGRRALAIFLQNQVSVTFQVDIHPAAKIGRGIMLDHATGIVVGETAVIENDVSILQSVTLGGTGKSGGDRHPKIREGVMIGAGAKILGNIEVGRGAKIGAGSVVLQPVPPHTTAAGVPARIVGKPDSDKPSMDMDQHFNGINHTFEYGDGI

[2] = target: T2, OpSat1p (GST-OpSat1p) (Ogataea parapolymorpha, UniProt W1Q867); test: as above; format: biochemical; details: read-out: concentration of cysteine at 50% inhibition
T2 construct: gene HPODL_02797; alpha/beta hydrolase 1 domain
T2 sequence (W1Q867 2-499): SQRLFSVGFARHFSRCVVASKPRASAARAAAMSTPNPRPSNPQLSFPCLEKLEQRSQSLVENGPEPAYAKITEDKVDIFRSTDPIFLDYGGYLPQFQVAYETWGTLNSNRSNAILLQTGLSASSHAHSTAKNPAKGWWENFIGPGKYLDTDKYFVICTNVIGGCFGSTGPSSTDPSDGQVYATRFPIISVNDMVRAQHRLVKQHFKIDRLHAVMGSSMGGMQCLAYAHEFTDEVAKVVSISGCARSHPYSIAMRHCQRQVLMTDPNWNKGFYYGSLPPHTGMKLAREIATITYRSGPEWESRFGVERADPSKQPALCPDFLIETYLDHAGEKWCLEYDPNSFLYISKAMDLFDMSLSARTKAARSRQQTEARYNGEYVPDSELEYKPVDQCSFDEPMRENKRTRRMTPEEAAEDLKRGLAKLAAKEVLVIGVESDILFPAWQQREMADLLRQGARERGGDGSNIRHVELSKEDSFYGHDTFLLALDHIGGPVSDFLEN

remaining activity at 1 µM [1]: ~40% | IC50 [2]: ~250 µM
Compound: N[C@@H](CS)C(=O)O [L-cysteine]
